According to patent publication US20210308101A1, “METHODS OF TREATING FIBROMYALGIA” (Aptinyx Inc., priority 2019, published 2021):
Entries after “also recorded” stand apart in the source; their conditions may differ.

Experiments:
Format in all cases: in vivo, human
[1] = test system: posterior insula Glx; assay: 1H-MRS Glx levels, posterior insula (pre and post evoked cuff pain); details: for pain-evoked increase in posterior insula Glx at the visit: p>0.60; for posterior insula pain-related Glx/tCr level increases: 11 patients; for posterior insula evoked pain Glx levels compared to the placebo visit: p<0.10, FIG. 15
Excerpt: As used herein, “^1H-MRS” is Magnetic Resonance Spectroscopy (1H-MRS) or Proton Magnetic Resonance Spectroscopy. Proton magnetic resonance spectroscopy is a noninvasive imaging technique that allows in vivo determination of biochemical parameters within brain tissue. Proton magnetic resonance spectroscopy data were used to collect brain neurotransmitter levels of Glu and combined glutamate+glutamine metabolites (Glx). This method provides metrics amenable to longitudinal studies such as those proposed here. High-resolution anatomical scans can isolate identical brain structures within individuals over time, thus minimizing error that otherwise would occur because of slight differences in voxel location from 1 evaluation to the next. Previous ^1H-MRS studies have utilized this approach to examine changes in the levels of CNS metabolites in test-retest studies of drug effects. This study expanded the investigation to a variety of regions throughout the brain including: • Right anterior insula • Right posterior insula (This region was acquired twice: once prior to and once following evoked cuff pain. All other voxels were acquired once.) • Perigenual/rostral anterior cingulate cortex (midline) • Dorsal/anterior cingulate cortex (midline) • Precuneus (midline) • Medial prefrontal cortex • Thalamus (optional if time permitted)
Proton magnetic resonance spectroscopy data were collected using the same scanners used for fMRI. Voxels of interest were placed in each of the aforementioned brain regions to obtain levels of Glu and Glx.
Raw data from each single-voxel spectroscopy sequence underwent manual post-processing using ^1H-MRS software (LCModel; Stephen Provencher, Oakville, Ontario, Canada). LCModel uses a linear combination of individual spectra obtained from pure molecular species to fit the experimental spectra. Glx values were calculated as an absolute concentration using the water signal for normalization or as a ratio to creatine. Correction for cerebral spinal fluid (CSF) volume, which can dilute ^1H-MRS-derived Glx values, was also performed. For this we used Voxel Based Morphometry, a toolbox that operates within SPM. Metabolite concentrations were excluded if the Cramér-Rao bounds were greater than 20%.
The analysis visit comparisons stated were analyzed using paired t-tests and/or nonparametric Wilcoxon signed-rank tests of Glx levels at each voxel independently in SPSS. The primary analyses were comparisons between posterior insula and anterior cingulate cortex Glx levels following placebo and NYX-2925 (either 20 or 200 mg) administration.

[2] = test system: subjects with fibromyalgia; assay: Numeric Pain Rating Scale (NPRS) daily pain scores
Procedure: As used herein, “NPRS” is Numeric Pain Rating Scale Score. Numeric pain rating scale is a unidimensional segmented numeric version of the visual analog scale. The NPRS score assessing average pain intensity in the past 24 hours are based on an 11-point numerical rating scale/Likert scale ranging from 0 to 10. Where 0 represents no pain and 10 is the worst pain imaginable. Individual one-time scores were collected at the Screening and Day 1 visits on the CRF in order to confirm eligibility status for the subjects. These CRF pain scores were not used in the analysis tables. Instead, the pain scores collected by eRT via phone data collection were used in the analysis tables. eRT collected a variable if the call was completed per the requirements. […] The daily pain scores were summarized using the mean and were calculated for the analysis visits at Baseline and Weeks 1-7. There needed to be at least 4 daily pain scores collected within a post-baseline analysis visit in order to calculate the mean pain score for that visit. Each mean analysis visit score took on values ranging from 0 to 10 and was rounded off by one number after the decimal point. No missing data imputations were used for these individual values or computed means. The actual values/means, changes from baseline, and changes from treatment periods at each analysis visit were summarized using descriptive statistics. Additionally, the treatment group comparisons were analyzed using the paired t-test and nonparametric Wilcoxon signed-rank test. All data collected and derived were presented in subject listings. The pain scores collected by eRT and the CRF were presented in separate subject listings.
The collection methods of the NPRS score assessing worst pain intensity in the past 24 hours were the same as the efficacy data for the NPRS score assessing average pain intensity in the past 24 hours and was analyzed using the same techniques. The worst pain score must be greater than or equal to the average pain score for each assessment. In the event a worst pain score was less than the average pain, both pain scores were removed from calculating the mean weekly analysis visit scores. These collected pain scores were presented in the subject listings with a note that they would be removed from the analysis tables.
The timeline of events in the study are depicted in FIG. 1A. The study included up to a 30 day screening period, to confirm the diagnosis, assess eligibility, and complete the baseline magnetic resonance imaging (MRI). This was a single-blind, exploratory, placebo-controlled pilot study in which eligible subjects received 2 weeks of daily oral (QD) placebo, 2 weeks of NYX-2925 20 mg PO daily (low dose), 2 weeks of NYX-2925 200 mg PO daily (high dose), followed by a 1 week follow-up period. An MRI was conducted during the screening period, during the last week of the placebo period, during the last week of the NYX-2925 20 mg administration period, and during the last week of the NYX-2925 200 mg administration period. Study visits occurred during screening, then at day one and weeks 1, 2, 3, 4, 5, 6, and 7. An optional MRI was completed at the end of the follow-up period for consenting subjects. Study participants and study staff responsible for interpreting MRI results were blinded to the study drug administration.

[3] = test system: dorsal anterior cingulate cortex Glx; assay: 1H-MRS Glx levels, dorsal anterior cingulate cortex
Excerpt: As used herein, “^1H-MRS” is Magnetic Resonance Spectroscopy (1H-MRS) or Proton Magnetic Resonance Spectroscopy. Proton magnetic resonance spectroscopy is a noninvasive imaging technique that allows in vivo determination of biochemical parameters within brain tissue. Proton magnetic resonance spectroscopy data were used to collect brain neurotransmitter levels of Glu and combined glutamate+glutamine metabolites (Glx). This method provides metrics amenable to longitudinal studies such as those proposed here. High-resolution anatomical scans can isolate identical brain structures within individuals over time, thus minimizing error that otherwise would occur because of slight differences in voxel location from 1 evaluation to the next. Previous ^1H-MRS studies have utilized this approach to examine changes in the levels of CNS metabolites in test-retest studies of drug effects. […]
Raw data from each single-voxel spectroscopy sequence underwent manual post-processing using ^1H-MRS software (LCModel; Stephen Provencher, Oakville, Ontario, Canada). […] Glx values were calculated as an absolute concentration using the water signal for normalization or as a ratio to creatine. […]
The analysis visit comparisons stated were analyzed using paired t-tests and/or nonparametric Wilcoxon signed-rank tests of Glx levels at each voxel independently in SPSS. […]

[4] = week six, after four weeks of NYX-2925, scale 0 to 10, n=19

CC(C)C(=O)N1CCC[C@]12CN([C@H](C(N)=O)[C@@H](C)O)C2=O [NYX-2925, (2S, 3R)-3-hydroxy-2-((R)-5-isobutyryl-1-oxo-2,5-diazaspiro[3.4]octan-2-yl)butanamide]
resting posterior insula Glx levels following evoked pain ([1]; FIG. 5: 20 mg vs placebo, 19 patients, p=0.032): significantly reduce resting posterior insula Glx levels | pain-evoked increase in posterior insula Glx at the visit ([1]; NYX-2925 20 mg visit): not significant | posterior insula pain-related Glx/tCr level increases ([1]; NYX-2925 20 mg vs placebo, FIG. 3A, p<0.05): reduction in pain related Glx/tCr level increases | posterior insula evoked pain Glx levels compared to the placebo visit ([1]; NYX-2925 20 mg): trend for NYX-2925 20 mg and 200 mg to reduce evoked pain Glx levels | posterior insula Glx levels post-pain (ratios to creatine only) ([1]; NYX-2925 200 mg compared to placebo, p<0.05): significant decrease in Glx levels | pain-evoked increase in posterior insula Glx at the visit ([1]; NYX-2925 200 mg visit): not significant | posterior insula pain-related Glx/tCr level increases ([1]; NYX-2925 200 mg vs placebo, FIG. 3B, p<0.05): reduction in pain related Glx/tCr level increases | posterior insula evoked pain Glx levels compared to the placebo visit ([1]; NYX-2925 200 mg): trend for NYX-2925 20 mg and 200 mg to reduce evoked pain Glx levels | average daily pain, change from baseline ([2]; NYX-2925 20 mg): reductions from baseline | worse daily pain, change from baseline ([2]; NYX-2925 20 mg): reductions from baseline | NPRS average pain score, mean change ([2]; Week 2 (placebo) to Week 4 (NYX-2925 20 mg PO QD)): −0.10 | NPRS average pain score, mean change ([2]; Week 2 (placebo) to Week 6 (NYX-2925 200 mg PO QD), p=0.0072): −0.66 | NPRS worst pain score, mean change ([2]; Week 2 (placebo) to Week 6 (NYX-2925 200 mg), p=0.0360): −0.61 | Average daily pain score, reduction from baseline [2, 4]: 1.1 point | Worst daily pain score, reduction from baseline [2, 4]: 1.0 point | dACC resting Glx (concentrations and ratios to creatine) ([3]; NYX-2925 20 mg vs placebo, p<0.05): statistically significant reductions of Glx levels; also recorded: decreased resting Glx | dACC mean Glx levels ([3]; NYX-2925 200 mg vs placebo): No significant decrease; also recorded: No effect
